Test results taken from PubChem BioAssay AID1918953 (Molecular Pharmacology Branch, DTP, NCI, 2023).

System: MDA-MB-231 complex spheroid viability
Experiment: Anticancer human tumor MDA-MB-231/ATCC cell line growth inhibition;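 further: drug exposure lasted 7 days starting on day 3 of spheroid growth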
Conditions: for IC50: curve of first compound; for viability, T/C: stronger effect = lower value
In short: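 Drug combinations with the LSD1 inhibitor iadademstat tested on tumor cells co-cultured as spheroids with endothelial cells and mesenchymal stem cells. Concentrations descended in half-log increments from clinical Cmax or 10 microM.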

[1] = second compound 0.1 µM, first compound 0.000949 µM
[2] = second compound 0.1 µM, first compound 0.003 µM
[3] = second compound 0.1 µM, first compound 0.00949 µM
[4] = second compound 0.1 µM, first compound 0.03 µM
[5] = second compound 0.1 µM, first compound 0.0949 µM
[6] = second compound 0.1 µM, first compound 0.3 µM
[7] = second compound 0.316 µM, first compound 0.000949 µM
[8] = second compound 0.316 µM, first compound 0.003 µM
[9] = second compound 0.316 µM, first compound 0.00949 µM
[10] = second compound 0.316 µM, first compound 0.03 µM
[11] = second compound 0.316 µM, first compound 0.0949 µM
[12] = second compound 0.316 µM, first compound 0.3 µM
[13] = second compound 1 µM, first compound 0.000949 µM
[14] = second compound 1 µM, first compound 0.003 µM
[15] = second compound 1 µM, first compound 0.00949 µM
[16] = second compound 1 µM, first compound 0.03 µM
[17] = second compound 1 µM, first compound 0.0949 µM
[18] = second compound 1 µM, first compound 0.3 µM
[19] = second compound 3.16 µM, first compound 0.000949 µM
[20] = second compound 3.16 µM, first compound 0.003 µM
[21] = second compound 3.16 µM, first compound 0.00949 µM
[22] = second compound 3.16 µM, first compound 0.03 µM
[23] = second compound 3.16 µM, first compound 0.0949 µM
[24] = second compound 3.16 µM, first compound 0.3 µM
[25] = second compound 10 µM, first compound 0.000949 µM
[26] = second compound 10 µM, first compound 0.003 µM
[27] = second compound 10 µM, first compound 0.00949 µM
[28] = second compound 10 µM, first compound 0.03 µM
[29] = second compound 10 µM, first compound 0.0949 µM
[30] = second compound 10 µM, first compound 0.3 µM

CC[C@@]1(O)C(=O)OCc2c1cc1n(c2=O)Cc2cc3c(CN(C)C)c(O)ccc3nc2-1 + NC1CCC(NC2CC2c2ccccc2)CC1
IC50 (second compound 0.1 µM): 2.37 nM
IC50 (second compound 0.316 µM): 2.18 nM
IC50 (second compound 1 µM): 2.28 nM
IC50 (second compound 3.16 µM): 1.46 nM
IC50 (second compound 10 µM): 0.603 nM
viability, T/C (second compound 0.1 µM, first compound 0.000316 µM): 91.6%
viability, T/C (second compound 0.1 µM, first compound 0.001 µM): 70.6%
viability, T/C (second compound 0.1 µM, first compound 0.00316 µM): 40.3%
viability, T/C (second compound 0.1 µM, first compound 0.01 µM): 29.1%
viability, T/C (second compound 0.1 µM, first compound 0.0316 µM): 22.5%
viability, T/C (second compound 0.1 µM, first compound 0.1 µM): 13%
viability, T/C (second compound 0.316 µM, first compound 0.000316 µM): 87.6%
viability, T/C (second compound 0.316 µM, first compound 0.001 µM): 66.3%
viability, T/C (second compound 0.316 µM, first compound 0.00316 µM): 40%
viability, T/C (second compound 0.316 µM, first compound 0.01 µM): 28.9%
viability, T/C (second compound 0.316 µM, first compound 0.0316 µM): 22.2%
viability, T/C (second compound 0.316 µM, first compound 0.1 µM): 12.4%
viability, T/C (second compound 1 µM, first compound 0.000316 µM): 87.3%
viability, T/C (second compound 1 µM, first compound 0.001 µM): 69.6%
viability, T/C (second compound 1 µM, first compound 0.00316 µM): 38.9%
viability, T/C (second compound 1 µM, first compound 0.01 µM): 29.7%
viability, T/C (second compound 1 µM, first compound 0.0316 µM): 22.4%
viability, T/C (second compound 1 µM, first compound 0.1 µM): 13.2%
viability, T/C (second compound 3.16 µM, first compound 0.000316 µM): 74.4%
viability, T/C (second compound 3.16 µM, first compound 0.001 µM): 56.8%
viability, T/C (second compound 3.16 µM, first compound 0.00316 µM): 36.5%
viability, T/C (second compound 3.16 µM, first compound 0.01 µM): 28.9%
viability, T/C (second compound 3.16 µM, first compound 0.0316 µM): 19.9%
viability, T/C (second compound 3.16 µM, first compound 0.1 µM): 13.2%
viability, T/C (second compound 10 µM, first compound 0.000316 µM): 57.8%
viability, T/C (second compound 10 µM, first compound 0.001 µM): 44.2%
viability, T/C (second compound 10 µM, first compound 0.00316 µM): 31.3%
viability, T/C (second compound 10 µM, first compound 0.01 µM): 23.2%
viability, T/C (second compound 10 µM, first compound 0.0316 µM): 16%
viability, T/C (second compound 10 µM, first compound 0.1 µM): 12.2%

CCc1c2c(nc3ccc(O)cc13)-c1cc3c(c(=O)n1C2)COC(=O)[C@]3(O)CC + NC1CCC(NC2CC2c2ccccc2)CC1
IC50 (second compound 0.1 µM): < 0.949 nM
IC50 (second compound 0.316 µM): < 0.949 nM
IC50 (second compound 1 µM): < 0.949 nM
IC50 (second compound 3.16 µM): < 0.949 nM
IC50 (second compound 10 µM): < 0.949 nM
viability, T/C [1]: 17.1%
viability, T/C [2]: 12.7%
viability, T/C [3]: 12%
viability, T/C [4]: 14%
viability, T/C [5]: 5.37%
viability, T/C [6]: 2.95%
viability, T/C [7]: 17.7%
viability, T/C [8]: 13.5%
viability, T/C [9]: 12%
viability, T/C [10]: 16%
viability, T/C [11]: 5.44%
viability, T/C [12]: 2.86%
viability, T/C [13]: 19.1%
viability, T/C [14]: 14.6%
viability, T/C [15]: 13.7%
viability, T/C [16]: 15.5%
viability, T/C [17]: 4.76%
viability, T/C [18]: 2.64%
viability, T/C [19]: 17%
viability, T/C [20]: 15.3%
viability, T/C [21]: 16.5%
viability, T/C [22]: 13.6%
viability, T/C [23]: 4.18%
viability, T/C [24]: 1.91%
viability, T/C [25]: 13.9%
viability, T/C [26]: 14%
viability, T/C [27]: 20.1%
viability, T/C [28]: 13.4%
viability, T/C [29]: 3.42%
viability, T/C [30]: 1.8%

Nc1ccn(C2OC(CO)C(O)C2(F)F)c(=O)n1 (stereo not given) + NC1CCC(NC2CC2c2ccccc2)CC1
IC50 (second compound 0.1 µM): < 0.949 nM
IC50 (second compound 0.316 µM): < 0.949 nM
IC50 (second compound 1 µM): < 0.949 nM
IC50 (second compound 3.16 µM): < 0.949 nM
IC50 (second compound 10 µM): < 0.949 nM
viability, T/C [1]: 23.4%
viability, T/C [2]: 18.9%
viability, T/C [3]: 17.4%
viability, T/C [4]: 15.9%
viability, T/C [5]: 8.32%
viability, T/C [6]: 6.14%
viability, T/C [7]: 24.3%
viability, T/C [8]: 19.6%
viability, T/C [9]: 19%
viability, T/C [10]: 16%
viability, T/C [11]: 8.93%
viability, T/C [12]: 6.74%
viability, T/C [13]: 22.2%
viability, T/C [14]: 17.9%
viability, T/C [15]: 18.2%
viability, T/C [16]: 13.6%
viability, T/C [17]: 8.49%
viability, T/C [18]: 7.33%
viability, T/C [19]: 23.7%
viability, T/C [20]: 18.9%
viability, T/C [21]: 17.2%
viability, T/C [22]: 12.8%
viability, T/C [23]: 9.01%
viability, T/C [24]: 6.68%
viability, T/C [25]: 19.2%
viability, T/C [26]: 19.2%
viability, T/C [27]: 14.4%
viability, T/C [28]: 10.3%
viability, T/C [29]: 6.87%
viability, T/C [30]: 5.84%
